Measured values as given in the supplement of paper PMC10307832.

Legend:
Test in all cases: relative viability (nuclei count vs DMSO), 5 days (fraction); higher = more cells survive
SGI-1776 + Crizotinib = compound: CN1CCC(CNc2ccc3ncc(-c4cccc(OC(F)(F)F)c4)n3n2)CC1 [SGI-1776] + C[C@@H](Oc1cc(-c2cnn(C3CCNCC3)c2)cnc1N)c1c(Cl)ccc(F)c1Cl [Crizotinib] (partner 1 µM)
Method in brief: (§1)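 Medians of duplicate plates are given as relative viability. That measure is the nuclei count in treated wells divided by the count in vehicle wells. Counts were taken on 4× images of lung cancer cell lines in 1536-well plates, 5 days after pin-tool dosing the day after seeding with one drug alone or a fixed anchor-drug dose plus five library-drug doses (not always all listed) in √10 steps.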

SGI-1776 + Olaparib = compound: CN1CCC(CNc2ccc3ncc(-c4cccc(OC(F)(F)F)c4)n3n2)CC1 [SGI-1776] + O=C(c1cc(Cc2n[nH]c(=O)c3ccccc23)ccc1F)N1CCN(C(=O)C2CC2)CC1 [Olaparib] (partner 8 µM)
Method in brief: as §1

SGI-1776 + Alpelisib = compound: CN1CCC(CNc2ccc3ncc(-c4cccc(OC(F)(F)F)c4)n3n2)CC1 [SGI-1776] + Cc1nc(NC(=O)N2CCC[C@H]2C(N)=O)sc1-c1ccnc(C(C)(C)C(F)(F)F)c1 [Alpelisib] (partner 2 µM)
Method in brief: as §1

[1] = compound: C1COCCN1C2=NC(=NC3=C2OC4=C3C=CC=N4)C5=CC(=CC=C5)NC(=O)C6=CN=C(C=C6)N + COc1cc2c(Oc3ccc(NC(=O)C4(C(=O)Nc5ccc(F)cc5)CC4)cc3F)ccnc2cc1OCCCN1CCOCC1 [Foretinib] (partner 0.25 µM)
Method in brief: as §1

Cell Line: UMC-11
- relative viability (SGI-1776 + Crizotinib; first compound 0.08 µM): 0.614
- relative viability (SGI-1776 + Crizotinib; first compound 0.8 µM): 0.498
- relative viability (SGI-1776 + Crizotinib; first compound 2.53 µM): 0.665
- relative viability (SGI-1776 + Crizotinib; first compound 8 µM): 0.169
- relative viability (SGI-1776 + Olaparib; first compound 0.08 µM): 0.337
- relative viability (SGI-1776 + Olaparib; first compound 0.8 µM): 0.433
- relative viability (SGI-1776 + Olaparib; first compound 2.53 µM): 0.289
- relative viability (SGI-1776 + Olaparib; first compound 8 µM): 0.206
- relative viability (SGI-1776 + Alpelisib; first compound 0.08 µM): 0.888
- relative viability (SGI-1776 + Alpelisib; first compound 0.8 µM): 1
- relative viability (SGI-1776 + Alpelisib; first compound 2.53 µM): 0.828
- relative viability (SGI-1776 + Alpelisib; first compound 8 µM): 0.671
- relative viability ([1]; first compound 0.02 µM): 1.05
- relative viability ([1]; first compound 0.06325 µM): 1.08
- relative viability ([1]; first compound 0.2 µM): 1.21
- relative viability ([1]; first compound 0.6325 µM): 1.19
- relative viability ([1]; first compound 2 µM): 0.871
